Reference: ChEMBL document CHEMBL1201862, “PubChem BioAssay data set” (2004)
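Test compounds were applied to cells in 96-well plates for 48 hours at 5 doses. GI50: concentration for 50% inhibition of growth.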 Active and inactive are the calls of the source. Cut-off read from the data, not from the text of the source: active = GI50 up to about 1.1 µM and inactive = higher.

What was measured:
Experiment in all cases: growth of human tumour cells (NCI), 48 h
[1] = system: DU-145
[2] = system: IGROV-1
[3] = system: COLO 205
[4] = system: TK-10
[5] = system: BT-549
[6] = system: RPMI-8226
[7] = system: M14
[8] = system: SW-620
[9] = system: SF-539
[10] = system: NCI/ADR-RES
[11] = system: HCT-116
[12] = system: NCI-H522
[13] = system: SNB-19
[14] = system: CAKI-1
[15] = system: OVCAR-8
[16] = system: NCI-H460
[17] = system: PC-3
[18] = system: SK-MEL-2
[19] = system: RXF 393

| Compound | GI50 [1] | GI50 [2] | GI50 [3] | GI50 [4] | GI50 [5] | GI50 [6] | GI50 [7] | GI50 [8] | GI50 [9] | GI50 [10] | GI50 [11] | GI50 [12] | GI50 [13] | GI50 [14] | GI50 [15] | GI50 [16] | GI50 [17] | GI50 [18] | GI50 [19] |
| --- | --- | --- | --- | --- | --- | --- | --- | --- | --- | --- | --- | --- | --- | --- | --- | --- | --- | --- | --- |
| CC1=NN(c2nc(N)nc(C/C(N)=N/O)n2)C(C)(C)C1 | > 100 µM (inactive) | > 100 µM (inactive) | > 100 µM (inactive) | > 100 µM (inactive) | > 100 µM (inactive) | > 100 µM (inactive) | > 100 µM (inactive) | > 100 µM (inactive) | > 100 µM (inactive) | > 100 µM (inactive) | > 100 µM (inactive) | > 100 µM (inactive) | > 100 µM (inactive) | > 100 µM (inactive) | > 100 µM (inactive) | > 100 µM (inactive) |  |  |  |
| CC1=CC2=C(C(N)=O)C(=O)OC2(C)C(c2ccccc2)C1 (stereo unspecified) | > 100 µM (inactive) | > 100 µM (inactive) |  | > 100 µM (inactive) | > 100 µM (inactive) | > 100 µM (inactive) | > 100 µM (inactive) | > 100 µM (inactive) | > 100 µM (inactive) | > 100 µM (inactive) | > 100 µM (inactive) | > 100 µM (inactive) | > 100 µM (inactive) |  | > 100 µM (inactive) | > 100 µM (inactive) | > 100 µM (inactive) | > 100 µM (inactive) |  |
| CC(=O)Nc1ccc(S(=O)(=O)/N=c2/sc(S(N)(=O)=O)nn2C)cc1 | > 100 µM (inactive) |  | > 100 µM (inactive) | > 100 µM (inactive) | > 100 µM (inactive) | > 100 µM (inactive) | > 100 µM (inactive) | > 100 µM (inactive) | > 100 µM (inactive) | > 100 µM (inactive) | > 100 µM (inactive) | > 100 µM (inactive) | > 100 µM (inactive) | > 100 µM (inactive) | > 100 µM (inactive) | > 100 µM (inactive) | > 100 µM (inactive) | > 100 µM (inactive) | > 100 µM (inactive) |
| COc1c(C)c(C/C=C(\C)CC/C=C(\C)CC/C=C(\C)CC/C=C(\C)CCC=C(C)C)c(OC)c(OC)c1OC | > 100 µM (inactive) | 26.9 µM (inactive) | > 100 µM (inactive) | 24 µM (inactive) | 85.1 µM (inactive) |  | 50.9 µM (inactive) | 97.7 µM (inactive) | > 100 µM (inactive) | 25 µM (inactive) | 58.3 µM (inactive) | 16 µM (inactive) | > 100 µM (inactive) | 81.3 µM (inactive) | 18.4 µM (inactive) | 8.81 µM (inactive) | 52.8 µM (inactive) | > 100 µM (inactive) | 17.4 µM (inactive) |
| CCOP(=O)(OCC)c1cc(-c2ccccc2)ccc1N | > 100 µM (inactive) | > 100 µM (inactive) | > 100 µM (inactive) | > 100 µM (inactive) | > 100 µM (inactive) | > 100 µM (inactive) | > 100 µM (inactive) | > 100 µM (inactive) |  | > 100 µM (inactive) | 66.5 µM (inactive) | 61.8 µM (inactive) | > 100 µM (inactive) | > 100 µM (inactive) | > 100 µM (inactive) | > 100 µM (inactive) | > 100 µM (inactive) | > 100 µM (inactive) | 33 µM (inactive) |
| Clc1ccc(OCc2nnc(CCCCCCCCc3nnc(COc4ccc(Cl)cc4Cl)o3)o2)c(Cl)c1 | 85.9 µM (inactive) | 9.4 µM (inactive) | > 100 µM (inactive) | > 100 µM (inactive) | > 100 µM (inactive) | 58.9 µM (inactive) | > 100 µM (inactive) | > 100 µM (inactive) |  | 76.6 µM (inactive) | 15.7 µM (inactive) | 18.7 µM (inactive) | 69.3 µM (inactive) | 24.6 µM (inactive) |  | 79.6 µM (inactive) | 60.3 µM (inactive) | > 100 µM (inactive) | > 100 µM (inactive) |
| c1ccc(/C(=N/Nc2ccncn2)c2ccccn2)cc1 | 34.6 µM (inactive) | 17 µM (inactive) | 1.03 µM (active) |  | 35.1 µM (inactive) | 9.75 µM (inactive) | 10.3 µM (inactive) | 6.32 µM (inactive) | 32.2 µM (inactive) | 18.4 µM (inactive) | 14.3 µM (inactive) | 0.776 µM (active) | 46.8 µM (inactive) | 15.5 µM (inactive) | 16.6 µM (inactive) | 30.1 µM (inactive) | 36.5 µM (inactive) | 44.8 µM (inactive) | 34.3 µM (inactive) |
| Cc1cccc(C)c1NC(=O)C(C#N)C1=C(Cl)C(=O)c2ccccc2C1=O (stereo unspecified) | 14.5 µM (inactive) | 17 µM (inactive) | 6.35 µM (inactive) | 19.5 µM (inactive) | 14.6 µM (inactive) | 8.67 µM (inactive) | 10.1 µM (inactive) | 11.9 µM (inactive) | 21.4 µM (inactive) |  | 15.4 µM (inactive) | 10.5 µM (inactive) | 16 µM (inactive) | 18.5 µM (inactive) | 16.9 µM (inactive) | 22.1 µM (inactive) | 13.8 µM (inactive) | 14.4 µM (inactive) | > 32.8 µM (inactive) |
| O=[N+]([O-])c1cc(Cl)ccc1S(=O)(=O)N1CCCc2cc(Cl)ccc21 | 61.5 µM (inactive) | 30.8 µM (inactive) | 51.8 µM (inactive) | > 100 µM (inactive) | 31.9 µM (inactive) | 20.6 µM (inactive) | > 100 µM (inactive) | > 100 µM (inactive) | 93.1 µM (inactive) | 25.5 µM (inactive) | 28.6 µM (inactive) |  | > 100 µM (inactive) | 45.2 µM (inactive) | > 100 µM (inactive) | 30.5 µM (inactive) | 55 µM (inactive) | > 100 µM (inactive) | 51.2 µM (inactive) |
| COc1cc(C2Oc3cc(-c4oc5cc(O)cc(O)c5c(=O)c4O)ccc3OC2CO)ccc1O (stereo unspecified) [DEHYDROSILYLBIN] |  | 10.9 µM (inactive) | 26.7 µM (inactive) | 10.9 µM (inactive) |  | 4.41 µM (inactive) | 12.4 µM (inactive) | 8.55 µM (inactive) | 4.24 µM (inactive) |  | 4.71 µM (inactive) | 3.03 µM (inactive) | 7.43 µM (inactive) | 14 µM (inactive) | 30.1 µM (inactive) | 3.72 µM (inactive) |  | 7.38 µM (inactive) | 2.31 µM (inactive) |
| COc1ccc(C(CC(=O)C(C)(C)CN2CCCCC2)SCCS(=O)(=O)O)cc1 (stereo unspecified) | 66.1 µM (inactive) | 53.2 µM (inactive) | 28.4 µM (inactive) | 45.7 µM (inactive) | 45.7 µM (inactive) | 24.9 µM (inactive) | 18.7 µM (inactive) | 32.6 µM (inactive) | 19.9 µM (inactive) | 35.4 µM (inactive) | 29 µM (inactive) | 21.5 µM (inactive) | 83.9 µM (inactive) | 34.9 µM (inactive) | 33.3 µM (inactive) | 22.6 µM (inactive) | 53.7 µM (inactive) | > 100 µM (inactive) | 40.4 µM (inactive) |
